Reference: PubChem BioAssay (NCI)
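How tested: cells in 96-well plates exposed to compound for 48 hours at five concentrations. GI50: concentration for 50% inhibition of growth. TGI marks complete inhibition of growth.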

tested on: PC-3 prostate; experiment: NCI tumour cell line growth inhibition, 48 h

| Compound | TGI | GI50 |
| --- | --- | --- |
| Cc1ccc(S(=O)(=O)n2c3c(c4ccccc42)CCN2C[C@H]([C@H](C)Br)CC[C@@H]32)cc1 | > 100 µM |  |
| C[n+]1c(/C=C/c2c(O)ccc3ccccc23)ccc2ccccc21 | 11.7 µM | 4 µM |
| CC(=NNC(=S)Nc1ccccc1)c1cccc(C(C)=NNC(=S)Nc2ccccc2)n1 | > 100 µM |  |
| CC(C)c1cc2c(c(O)c1O)[C@@]1(C(=O)O)CCCC(C)(C)[C@@H]1CC2 | 33.9 µM |  |
| COC1=CC(=O)c2c(c(-c3nc(C)cs3)cn2C)C1=O | > 55.4 µM |  |
| C=CCn1c(=O)c(C(=O)Nc2nc(C34CC5CC(CC(C5)C3)C4)cs2)c(O)c2ccccc21 | > 100 µM |  |
| CCCNc1ncnc2c1ncn2C | > 100 µM |  |
| CCOS(C)(=O)=O | > 100 µM |  |
| CC(C)SC(=S)Sc1c(Cl)c(Cl)nc(Cl)c1Cl | 16 µM |  |
| CC(NC(=O)Cc1ccccc1)NC(=O)C(C)C(=O)Nc1ccccc1 (stereo not given) | > 100 µM |  |
| CC(C)(C)[Si](C)(C)OCC1OC(n2ccc(=O)[nH]c2=O)C(O[Si](C)(C)C(C)(C)C)/C1=C/C#N (stereo not given) | > 100 µM |  |

tested on: NCI-H226 lung; experiment: NCI tumour cell line growth inhibition, 48 h

| Compound | TGI | GI50 |
| --- | --- | --- |
| Cc1ccc(S(=O)(=O)n2c3c(c4ccccc42)CCN2C[C@H]([C@H](C)Br)CC[C@@H]32)cc1 | > 100 µM |  |
| C[n+]1c(/C=C/c2c(O)ccc3ccccc23)ccc2ccccc21 | 13.2 µM | 5.65 µM |
| CC(=NNC(=S)Nc1ccccc1)c1cccc(C(C)=NNC(=S)Nc2ccccc2)n1 | > 44 µM |  |
| CC(C)c1cc2c(c(O)c1O)[C@@]1(C(=O)O)CCCC(C)(C)[C@@H]1CC2 | 29.4 µM |  |
| COC1=CC(=O)c2c(c(-c3nc(C)cs3)cn2C)C1=O | 77.2 µM |  |
| C=CCn1c(=O)c(C(=O)Nc2nc(C34CC5CC(CC(C5)C3)C4)cs2)c(O)c2ccccc21 | > 100 µM |  |
| CCCNc1ncnc2c1ncn2C | > 100 µM |  |
| CCOS(C)(=O)=O | > 100 µM |  |
| CC(C)SC(=S)Sc1c(Cl)c(Cl)nc(Cl)c1Cl | 50.3 µM |  |
| CC(NC(=O)Cc1ccccc1)NC(=O)C(C)C(=O)Nc1ccccc1 (stereo not given) | 74.3 µM |  |
| CC(C)(C)[Si](C)(C)OCC1OC(n2ccc(=O)[nH]c2=O)C(O[Si](C)(C)C(C)(C)C)/C1=C/C#N (stereo not given) | > 75.8 µM |  |

tested on: SF-539 CNS; experiment: NCI tumour cell line growth inhibition, 48 h

| Compound | TGI | GI50 |
| --- | --- | --- |
| Cc1ccc(S(=O)(=O)n2c3c(c4ccccc42)CCN2C[C@H]([C@H](C)Br)CC[C@@H]32)cc1 | > 100 µM |  |
| C[n+]1c(/C=C/c2c(O)ccc3ccccc23)ccc2ccccc21 | 13.9 µM | 6.4 µM |
| CC(=NNC(=S)Nc1ccccc1)c1cccc(C(C)=NNC(=S)Nc2ccccc2)n1 | 12.5 µM |  |
| CC(C)c1cc2c(c(O)c1O)[C@@]1(C(=O)O)CCCC(C)(C)[C@@H]1CC2 | 38.8 µM |  |
| COC1=CC(=O)c2c(c(-c3nc(C)cs3)cn2C)C1=O | 9.94 µM |  |
| C=CCn1c(=O)c(C(=O)Nc2nc(C34CC5CC(CC(C5)C3)C4)cs2)c(O)c2ccccc21 | > 100 µM |  |
| CCCNc1ncnc2c1ncn2C | > 100 µM |  |
| CCOS(C)(=O)=O | > 100 µM |  |
| CC(C)SC(=S)Sc1c(Cl)c(Cl)nc(Cl)c1Cl | 24.8 µM |  |
| CC(NC(=O)Cc1ccccc1)NC(=O)C(C)C(=O)Nc1ccccc1 (stereo not given) | > 100 µM |  |
| CC(C)(C)[Si](C)(C)OCC1OC(n2ccc(=O)[nH]c2=O)C(O[Si](C)(C)C(C)(C)C)/C1=C/C#N (stereo not given) | > 64 µM |  |

tested on: RXF 393 renal; experiment: NCI tumour cell line growth inhibition, 48 h

| Compound | TGI | GI50 |
| --- | --- | --- |
| Cc1ccc(S(=O)(=O)n2c3c(c4ccccc42)CCN2C[C@H]([C@H](C)Br)CC[C@@H]32)cc1 | > 100 µM |  |
| C[n+]1c(/C=C/c2c(O)ccc3ccccc23)ccc2ccccc21 | 10.7 µM | 4.54 µM |
| CC(=NNC(=S)Nc1ccccc1)c1cccc(C(C)=NNC(=S)Nc2ccccc2)n1 | 36.6 µM |  |
| CC(C)c1cc2c(c(O)c1O)[C@@]1(C(=O)O)CCCC(C)(C)[C@@H]1CC2 | 66.7 µM |  |
| COC1=CC(=O)c2c(c(-c3nc(C)cs3)cn2C)C1=O | 77.8 µM |  |
| C=CCn1c(=O)c(C(=O)Nc2nc(C34CC5CC(CC(C5)C3)C4)cs2)c(O)c2ccccc21 | > 100 µM |  |
| CCCNc1ncnc2c1ncn2C | > 100 µM |  |
| CCOS(C)(=O)=O | > 100 µM |  |
| CC(C)SC(=S)Sc1c(Cl)c(Cl)nc(Cl)c1Cl | 9.17 µM |  |
| CC(NC(=O)Cc1ccccc1)NC(=O)C(C)C(=O)Nc1ccccc1 (stereo not given) | > 100 µM |  |
| CC(C)(C)[Si](C)(C)OCC1OC(n2ccc(=O)[nH]c2=O)C(O[Si](C)(C)C(C)(C)C)/C1=C/C#N (stereo not given) | 11.9 µM |  |

tested on: NCI-H522 lung; experiment: NCI tumour cell line growth inhibition, 48 h

| Compound | TGI | GI50 |
| --- | --- | --- |
| Cc1ccc(S(=O)(=O)n2c3c(c4ccccc42)CCN2C[C@H]([C@H](C)Br)CC[C@@H]32)cc1 | > 100 µM |  |
| C[n+]1c(/C=C/c2c(O)ccc3ccccc23)ccc2ccccc21 | 10.2 µM | 2.52 µM |
| CC(=NNC(=S)Nc1ccccc1)c1cccc(C(C)=NNC(=S)Nc2ccccc2)n1 | > 100 µM |  |
| CC(C)c1cc2c(c(O)c1O)[C@@]1(C(=O)O)CCCC(C)(C)[C@@H]1CC2 | 25.8 µM |  |
| COC1=CC(=O)c2c(c(-c3nc(C)cs3)cn2C)C1=O | 7.26 µM |  |
| C=CCn1c(=O)c(C(=O)Nc2nc(C34CC5CC(CC(C5)C3)C4)cs2)c(O)c2ccccc21 | > 100 µM |  |
| CCCNc1ncnc2c1ncn2C | > 100 µM |  |
| CCOS(C)(=O)=O | > 100 µM |  |
| CC(C)SC(=S)Sc1c(Cl)c(Cl)nc(Cl)c1Cl | 11.6 µM |  |
| CC(NC(=O)Cc1ccccc1)NC(=O)C(C)C(=O)Nc1ccccc1 (stereo not given) | > 100 µM |  |
| CC(C)(C)[Si](C)(C)OCC1OC(n2ccc(=O)[nH]c2=O)C(O[Si](C)(C)C(C)(C)C)/C1=C/C#N (stereo not given) | > 100 µM |  |
